Data published in US5057520A, “7-(peptidylpyrolidinyl)naphthyridine antibacterial compounds” (Abbott Laboratories, priority 1989, dated 1991).
Values after ≈ are worked out from the molar mass of the structure shown. Where a name gives a salt, the structure may show the parent alone. Read-outs that look alike come from different tables or passages of the source.

Columns and labels:
E. Coli Juhl = assay: Acute mouse protection test; assay type: in vivo; conditions: mice infected i.p. with E. Coli JUHL, observed 7 days; for SC (ED50): SC dosing at 1 and 5 hours post-infection; for Oral (ED50): oral dosing at 1 and 5 hours post-infection
[1] = test system: PSEUDOMONAS AERUGINOSA K799/61; assay: In vitro MIC, agar dilution (BHIA); assay type: cell-based
P. Aeruginosa A5007 = assay: Acute mouse protection test; assay type: in vivo; conditions: mice infected i.p. with P. Aeruginosa A5007, observed 7 days; for SC (ED50): SC dosing at 1 and 5 hours post-infection; for Oral (ED50): oral dosing at 1 and 5 hours post-infection
Stap. Aureus NCTC 10649 = assay: Acute mouse protection test; assay type: in vivo; conditions: mice infected i.p. with Stap. Aureus NCTC 10649, observed 7 days; for SC (ED50): SC dosing at 1 and 5 hours post-infection; for Oral (ED50): oral dosing at 1 and 5 hours post-infection
[2] = test system: PROVIDENCIA STUARTII CMX 640; assay: In vitro MIC, agar dilution (BHIA); assay type: cell-based
[3] = test system: STREPTOCOCCUS PYOGENES EES61; assay: In vitro MIC, agar dilution (BHIA); assay type: cell-based
ESCHERICHIA COLI H560 = assay: In vitro MIC, agar dilution (BHIA); assay type: cell-based
Text: (§1) The MIC results are in ug/ml.

ESCHERICHIA COLI SS = assay: In vitro MIC, agar dilution (BHIA); assay type: cell-based
Text: as §1

PSEUDOMONAS CEPACIA 296I = assay: In vitro MIC, agar dilution (BHIA); assay type: cell-based
[4] = test system: PSEUDOMONAS AERUGINOSA A5007; assay: In vitro MIC, agar dilution (BHIA); assay type: cell-based
[5] = test system: STREPTOCOCCUS PYOGENES 930 CONST; assay: In vitro MIC, agar dilution (BHIA); assay type: cell-based
[6] = test system: STREPTOCOCCUS PYOGENES 2548 INDUC; assay: In vitro MIC, agar dilution (BHIA); assay type: cell-based
[7] = test system: PSEUDOMONAS AERUGINOSA K799/WT; assay: In vitro MIC, agar dilution (BHIA); assay type: cell-based
[8] = test system: STREPTOCOCCUS AGALACTIAE CMX 508; assay: In vitro MIC, agar dilution (BHIA); assay type: cell-based
[9] = test system: MICROCOCCUS LUTEUS ATCC 9341; assay: In vitro MIC, agar dilution (BHIA); assay type: cell-based
ACINETOBACTER SP CMX 669 = assay: In vitro MIC, agar dilution (BHIA); assay type: cell-based
[10] = test system: STREPTOCOCCUS BOVIS A5169; assay: In vitro MIC, agar dilution (BHIA); assay type: cell-based
[11] = test system: MICROCOCCUS LUTEUS ATCC 4698; assay: In vitro MIC, agar dilution (BHIA); assay type: cell-based
[12] = test system: PSEUDOMONAS AERUGINOSA BMH10; assay: In vitro MIC, agar dilution (BHIA); assay type: cell-based
[13] = test system: KLEBSIELLA PNEUMONIAE ATCC 8045; assay: In vitro MIC, agar dilution (BHIA); assay type: cell-based
[14] = Conversion of prodrug to parent drug in whole blood at 37° C.; assay type: in vitro ADME, Dog
Experimental: (§2) An aqueous solution of prodrug (Z) is spiked into fresh whole blood containing sodium heparin as an anticoagulant. The sample is mixed gently by inversion and placed in a 37° waterbath. At selected time intervals an 0.5 ml aliquot of blood is removed and placed in a chilled 1.5 ml centrifuge tube (ice temperature). Samples are centrifuges at 13,000 rpm for two minutes to separate plasma. An 0.2 ml aliquot of the plasma sample is combined with 0.2 ml internal standard (7-(4-amino-2-methyl-1-pyrrolidinyl)-1-(2,4-difluorophenyl)-6-fluoro-1,4-d ihydro-4-oxo-1,8-naphthyridine-3-carboxylic acid in 0.2M sodium phosphate pH 7.2 buffer) and 6 mls CH2 Cl2 :EtoH (9:1 by volume). Samples are capped and shaken gently for 10 minutes. Samples are centrifuges at 2500 rpm for 10 minutes (4° C.). The aqueous layer is aspirated to waste and the organic layer is transferred to a conical centrifuge tube and evaporated to dryness with a stream of dry air and low heat ([…]). Samples are reconstituted with 0.2 ml mobile phase followed by vortexing. Samples are centrifuges at 2500 rpm for 10 minutes to separate precipitate. The supernatant is transferred to a WISP vial with plastic insert for HPLC analysis.

ESCHERICHIA COLI DC-2 = assay: In vitro MIC, agar dilution (BHIA); assay type: cell-based
Text: as §1

[15] = test system: ENTEROCOCCUS FAECIUM ATCC 8043; assay: In vitro MIC, agar dilution (BHIA); assay type: cell-based
[16] = test system: ENTEROBACTER AEROGENES ATCC 13048; assay: In vitro MIC, agar dilution (BHIA); assay type: cell-based
ESCHERICHIA COLI KNK 437 = assay: In vitro MIC, agar dilution (BHIA); assay type: cell-based
[17] = Conversion of prodrug to parent drug in whole blood at 37° C.; assay type: in vitro ADME, Human
Experimental: as §2

[18] = Conversion of prodrug to parent drug in whole blood at 37° C.; assay type: in vitro ADME, Rat
Experimental: as §2

ESCHERICHIA COLI JUHL = assay: In vitro MIC, agar dilution (BHIA); assay type: cell-based
[19] = Solubility in water and at pH 7.4; conditions: for Water Solubility: the sign > refers to an approximate value and the solubility may be within 10% higher
[20] = Plasma level in dog after oral dose; conditions: 10 mg equivalent/kg oral dose, HPLC
Text: The plasma samples were collected and determined by the HPLC analysis.

[21] = STREPTOCOCCUS AGALACTIAE CMX 508

NCC(=O)N[C@@H](Cc1ccccc1)C(=O)NC1CCN(c2nc3c(cc2F)c(=O)c(C(=O)O)cn3-c2ccc(F)cc2F)C1 (stereo partly drawn) [Example 1b, 7-[(3-Gly-L-Phe-amino)-1-pyrrolidinyl]-1-(2,4-difluorophenyl)-6-fluoro-1,4-dihydro-4-oxo-1,8-naphthyridine-3-carb oxylic acid hydrochloride]
SC (ED50) (E. Coli Juhl): 0.6 mg/kg/day
Oral (ED50) (E. Coli Juhl): 1.8 mg/kg/day
MIC [1]: 12.5 µg/mL
SC (ED50) (P. Aeruginosa A5007): 8.0 mg/kg/day
Oral (ED50) (P. Aeruginosa A5007): 27.3 mg/kg/day
SC (ED50) (Stap. Aureus NCTC 10649): 0.5 mg/kg/day
Oral (ED50) (Stap. Aureus NCTC 10649): 0.7 mg/kg/day
MIC [2]: 100 µg/mL
MIC ([3]; STR[…] EES61): 1.56 µg/mL
MIC (ESCHERICHIA COLI H560): 1.56 µg/mL
MIC (ESCHERICHIA COLI SS): .2 µg/mL
MIC (PSEUDOMONAS CEPACIA 296I): 50 µg/mL
MIC [4]: 25 µg/mL
MIC [5]: .78 µg/mL
MIC [6]: .78 µg/mL
MIC [7]: 25 µg/mL
MIC ([8]; STR[…] 508): 1.56 µg/mL
MIC [9]: 6.25 µg/mL
MIC (ACINETOBACTER SP CMX 669): 12.5 µg/mL
MIC ([10]; STR[…] A5169): 1.56 µg/mL
MIC [11]: .78 µg/mL
MIC [12]: 25 µg/mL
MIC [13]: 12.5 µg/mL

CC(N)C(=O)NC(C)C(=O)NC1CCN(c2nc3c(cc2F)c(=O)c(C(=O)O)cn3-c2ccc(F)cc2F)C1 (stereo not shown) [Example 15]
SC (ED50) (E. Coli Juhl): 0.5 mg/kg/day
Oral (ED50) (E. Coli Juhl): 2.0 mg/kg/day
MIC [1]: 3.1 µg/mL (≈ 5.67 µM)
SC (ED50) (P. Aeruginosa A5007): 3.1 mg/kg/day
Oral (ED50) (P. Aeruginosa A5007): 9.1 mg/kg/day
SC (ED50) (Stap. Aureus NCTC 10649): 0.8 mg/kg/day
Oral (ED50) (Stap. Aureus NCTC 10649): 1.3 mg/kg/day
MIC [2]: 100 µg/mL (≈ 183 µM)
Half Life Dog [14]: 2.4 m
MIC ([3]; STREPTOCOCCUS PYOGENES EES61): 12.5 µg/mL (≈ 22.9 µM)
MIC (ESCHERICHIA COLI H560): 6.2 µg/mL (≈ 11.3 µM)
MIC (ESCHERICHIA COLI DC-2): 100 µg/mL (≈ 183 µM)
MIC (ESCHERICHIA COLI SS): .39 µg/mL (≈ 0.714 µM)
MIC (PSEUDOMONAS CEPACIA 296I): 50 µg/mL (≈ 91.5 µM)
MIC [4]: 100 µg/mL (≈ 183 µM)
MIC [5]: 12.5 µg/mL (≈ 22.9 µM)
MIC [15]: 50 µg/mL (≈ 91.5 µM)
MIC [6]: 12.5 µg/mL (≈ 22.9 µM)
MIC [16]: 25 µg/mL (≈ 45.7 µM)
MIC [7]: 50 µg/mL (≈ 91.5 µM)
MIC [8, 21]: 12.5 µg/mL (≈ 22.9 µM)
MIC [9]: > 100 µg/mL
MIC (ACINETOBACTER SP CMX 669): 12.5 µg/mL (≈ 22.9 µM)
MIC ([10]; STREPTOCOCCUS BOVIS A5169): 50 µg/mL (≈ 91.5 µM)
MIC (ESCHERICHIA COLI KNK 437): 50 µg/mL (≈ 91.5 µM)
MIC [11]: 100 µg/mL (≈ 183 µM)
Half Life Human [17]: 3.0 m
Solubility pH 7.4: 1.07 mg/ml
MIC [12]: 100 µg/mL (≈ 183 µM)
Half Life Rat [18]: 84.8 s
MIC (ESCHERICHIA COLI JUHL): 12.5 µg/mL (≈ 22.9 µM)
MIC [13]: 12.5 µg/mL (≈ 22.9 µM)

CCC[C@H](NC(=O)CN)C(=O)NC1CCN(c2nc3c(cc2F)c(=O)c(C(=O)O)cn3-c2ccc(F)cc2F)C1 (stereo partly shown) [Example 52]
Solubility pH 7.4 [19]: 0.08 mg/ml
Water Solubility [19]: 6.89 mg/mL
AUC (0-32h) [20]: 13.9

CCC[C@H](NC(=O)[C@H](C)N)C(=O)NC1CCN(c2nc3c(cc2F)c(=O)c(C(=O)O)cn3-c2ccc(F)cc2F)C1 (stereo partly shown) [Example 55b, 7-(3-Ala-Nval-amino-1-pyrrolidinyl)-6-fluoro-1-(2,4-difluorophenyl)-1,4-di hydro-4-oxo-1,8-naphthyridine-3-carboxylic acid]
Solubility pH 7.4 [19]: 1.03 mg/ml
Water Solubility [19]: 26 mg/mL
Half Life Dog ([14]; conversion to parent drug in dog whole blood at 37° C., seconds): 118.0 s
AUC (0-32h) [20]: 15.4
Half Life Human ([17]; conversion to parent drug in human whole blood at 37° C., seconds): 88.0 s
Half Life Rat ([18]; conversion to parent drug in rat whole blood at 37° C., seconds): 33.2 s

NC(Cc1ccccc1)C(=O)NC1CCN(c2nc3c(cc2F)c(=O)c(C(=O)O)cn3-c2ccc(F)cc2F)C1 (stereo not shown) [Example 5]
SC (ED50) (E. Coli Juhl): 0.7 mg/kg/day
Oral (ED50) (E. Coli Juhl): 3.5 mg/kg/day
MIC [1]: 1.56 µg/mL (≈ 2.83 µM)
SC (ED50) (P. Aeruginosa A5007): 7.5 mg/kg/day
Oral (ED50) (P. Aeruginosa A5007): 18.6 mg/kg/day
SC (ED50) (Stap. Aureus NCTC 10649): 1.0 mg/kg/day
Oral (ED50) (Stap. Aureus NCTC 10649): 3.6 mg/kg/day
MIC [2]: > 100 µg/mL
Half Life Dog [14]: 8.3 m
MIC ([3]; STREPTOCOCCUS PYOGENES EES61): 3.1 µg/mL (≈ 5.62 µM)
MIC (ESCHERICHIA COLI H560): 3.1 µg/mL (≈ 5.62 µM)
MIC (ESCHERICHIA COLI SS): .1 µg/mL (≈ 0.181 µM)
MIC (PSEUDOMONAS CEPACIA 296I): > 100 µg/mL
MIC [4]: 50 µg/mL (≈ 90.7 µM)
MIC [15]: 3.1 µg/mL (≈ 5.62 µM)
MIC [6]: .78 µg/mL (≈ 1.41 µM)
MIC [16]: 12.5 µg/mL (≈ 22.7 µM)
MIC [7]: 25 µg/mL (≈ 45.3 µM)
MIC [8, 21]: 3.1 µg/mL (≈ 5.62 µM)
MIC [9]: 25 µg/mL (≈ 45.3 µM)
MIC (ACINETOBACTER SP CMX 669): 12.5 µg/mL (≈ 22.7 µM)
MIC [11]: 12.5 µg/mL (≈ 22.7 µM)
Half Life Human [17]: 10.7 m
MIC [12]: 25 µg/mL (≈ 45.3 µM)
Half Life Rat [18]: 4.5 m
MIC (ESCHERICHIA COLI JUHL): 3.1 µg/mL (≈ 5.62 µM)
MIC [13]: 1.56 µg/mL (≈ 2.83 µM)
